From patent US20250115597A1, “TYK2 INHIBITORS AND COMPOSITIONS AND METHODS THEREOF” (LYNK PHARMACEUTICALS CO. LTD., priority 2021, published 2025)
In brackets after ≈: the same amount, converted by molar mass.

Columns and labels:
TYK2-JH2 domain = molecular target: T1, TYK2-JH2 domain (Homo sapiens, UniProt P29597); assay: Binding activity test for JH2 domain of TYK2 (Tb-antibody/tracer FRET); conditions: for JAK1/TYK2 selectivity: ratio JAK1-JH2 IC50 / TYK2-JH2 IC50
T1 construct: IC50 on JH2 domain activity (nM)
T1 sequence (P29597 589-875 limits assumed): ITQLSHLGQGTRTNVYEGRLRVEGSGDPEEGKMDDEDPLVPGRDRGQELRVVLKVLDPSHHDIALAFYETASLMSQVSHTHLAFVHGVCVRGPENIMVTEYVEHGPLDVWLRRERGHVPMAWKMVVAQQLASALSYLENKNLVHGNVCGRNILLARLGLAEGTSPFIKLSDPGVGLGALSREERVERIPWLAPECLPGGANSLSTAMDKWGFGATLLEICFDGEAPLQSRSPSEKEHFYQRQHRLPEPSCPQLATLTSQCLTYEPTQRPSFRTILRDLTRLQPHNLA
Outline: (§1)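 FRET read-out after 60 min at 25° C plus overnight at 4° C; tracer displacement detected via Tb-labelled antibody on the JH2 domain. Dose-response used 11 points at 3-fold dilution.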

JAK1-JH2 domain = molecular target: T2, JAK1-JH2 domain (Homo sapiens, UniProt P23458); assay: Binding activity test for JH2 domain of JAK1 (Tb-antibody/tracer FRET)
T2 construct: IC50 on JH2 domain activity (nM)
T2 sequence (P23458 583-855 limits assumed): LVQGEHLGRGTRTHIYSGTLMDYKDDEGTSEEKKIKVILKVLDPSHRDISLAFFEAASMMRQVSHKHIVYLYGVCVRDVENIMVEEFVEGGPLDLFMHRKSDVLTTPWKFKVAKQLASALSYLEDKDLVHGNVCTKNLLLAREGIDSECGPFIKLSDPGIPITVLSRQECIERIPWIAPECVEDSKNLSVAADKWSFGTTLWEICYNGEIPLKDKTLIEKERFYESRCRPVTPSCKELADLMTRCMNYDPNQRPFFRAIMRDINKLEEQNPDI
Outline: as §1

JAK1 = molecular target: T3, JAK1 (Homo sapiens, UniProt P23458); assay: JAK1 kinase activity, microfluidic assay (Caliper EZ Reader II); assay type: biochemical; conditions: JAK1 5 nM, 1 mM ATP
T3 construct: purchased Carna Biosciences
T3 sequence (P23458 whole entry): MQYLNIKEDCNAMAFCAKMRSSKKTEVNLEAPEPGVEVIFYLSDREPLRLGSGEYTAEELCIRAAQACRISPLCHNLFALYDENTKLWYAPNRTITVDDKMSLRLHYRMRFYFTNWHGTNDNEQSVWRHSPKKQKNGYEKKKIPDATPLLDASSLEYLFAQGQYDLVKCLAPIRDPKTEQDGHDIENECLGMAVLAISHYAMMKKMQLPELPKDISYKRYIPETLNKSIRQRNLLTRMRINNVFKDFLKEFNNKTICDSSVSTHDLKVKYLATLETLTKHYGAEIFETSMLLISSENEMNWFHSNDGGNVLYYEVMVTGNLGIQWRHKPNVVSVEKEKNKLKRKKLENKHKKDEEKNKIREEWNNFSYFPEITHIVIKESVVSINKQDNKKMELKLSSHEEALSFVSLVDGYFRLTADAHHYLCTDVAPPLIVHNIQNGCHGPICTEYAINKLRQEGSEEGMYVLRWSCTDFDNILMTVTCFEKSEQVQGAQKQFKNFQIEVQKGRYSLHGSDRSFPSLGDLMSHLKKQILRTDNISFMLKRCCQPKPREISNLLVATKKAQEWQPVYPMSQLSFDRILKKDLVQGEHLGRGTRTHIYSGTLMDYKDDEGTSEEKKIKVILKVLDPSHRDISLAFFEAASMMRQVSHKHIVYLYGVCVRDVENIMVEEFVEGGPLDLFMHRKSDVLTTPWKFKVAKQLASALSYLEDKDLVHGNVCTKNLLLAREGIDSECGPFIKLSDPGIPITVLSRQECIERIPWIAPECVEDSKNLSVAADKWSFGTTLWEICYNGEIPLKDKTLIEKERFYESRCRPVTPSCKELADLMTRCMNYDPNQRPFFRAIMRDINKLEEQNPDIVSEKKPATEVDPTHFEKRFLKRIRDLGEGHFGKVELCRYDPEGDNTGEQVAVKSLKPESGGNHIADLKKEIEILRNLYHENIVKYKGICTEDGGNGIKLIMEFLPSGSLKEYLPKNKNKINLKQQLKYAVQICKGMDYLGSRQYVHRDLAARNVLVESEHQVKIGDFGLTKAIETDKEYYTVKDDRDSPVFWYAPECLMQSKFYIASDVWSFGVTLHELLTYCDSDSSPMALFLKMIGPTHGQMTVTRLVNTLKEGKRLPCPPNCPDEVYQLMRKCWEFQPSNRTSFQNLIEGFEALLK
Outline: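 Human JAK1, JAK2 or TYK2 enzyme was used in 50 mM HEPES, 10 mM MgCl2, 2 mM DTT and 0.01% Brij35, tuned to 10% conversion of a FAM-labelled peptide. Threefold dilutions of compound (top 5 µM, 1% DMSO) were pre-incubated with enzyme for 10 min, and reactions were stopped with EDTA. Phosphorylation was read by microfluidic mobility shift, and IC50 came from percent-inhibition curves.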

pSTAT1 = assay: Phosphorylation inhibition of STAT in human whole blood, IFN-alpha stimulated (flow cytometry); assay type: cell-based; conditions: 20 min; human whole blood, IFN-alpha 20 mins, CD3 cells; read-out: IC50 on pSTAT1 inhibition in h WB
Outline: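 Readout is pSTAT1 (Y701) in CD3-stained cells by flow cytometry, with IC50 derived from a 4-parameter logistic equation. Fresh human PBMC or fresh whole blood received a 20-min Universal Type I IFN-alpha stimulation before fixation and cold permeabilization.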

[1] = Plasma protein binding by equilibrium dialysis; assay type: in vitro ADME; conditions: human plasma, equilibrium dialysis 5 hours at 37° C.; read-out: % Bound (human) (converted)
Outline: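 Compound spiked into plasma at 0.2 and 2 μM was dialyzed against PBS for 5 h at 37° C with shaking, in duplicate. Plasma and buffer chambers were matrix-matched, protein-precipitated and analysed by LC-MS/MS to derive % unbound, % bound and % recovery.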

Kinetic solubility = assay type: physicochemical; conditions: phosphate buffer, aqueous buffer, kinetic from dmso stock, PBS (pH 7.4), 1% DMSO, room temperature
Procedure: Aliquots of 8 μL of reference and test compound stock solutions (10 mM/5 mM) are added into 792 μL of 100 mM pH 7.4 phosphate buffer. The final DMSO concentration is 1%. Sample tubes are shaken for 2 hours at 1000 rpm at room temperature. Samples are centrifuged at 12000 rpm for 10 min to precipitate un-dissolved particles. And transfer the supernatants to a new tube or plate. Add 5 μL of samples (no diluted, 10 times diluted and 100 times diluted) and standard curve samples to 95 μL of ACN containing IS for LC-MS/MS analysis.

Structure (SMILES)	IC50 (TYK2-JH2 domain) [nM]	JAK1/TYK2 selectivity (TYK2-JH2 domain)	IC50 (JAK1-JH2 domain) [nM]	IC50 (JAK1) [nM]	IC50 (pSTAT1) [nM]	fraction unbound at 5 h [1]	solubility at 2 h (Kinetic solubility) [µM]
[2H]C([2H])([2H])NC(=O)c1cnc(NC(=O)C2CC2)cc1Nc1ccc2cnn(CC)c2c1OC [Example 44, 6-(Cyclopropanecarboxamido)-4-((1-ethyl-7-methoxy-1H-indazol-6-yl)amino)-N-(methyl-d3)nicotinamide]	0.286	34.6	9.89	> 5000	219	0.068	38.7 (≈ 15.9 µg/mL)
[2H]C([2H])([2H])NC(=O)c1cnc(NC(=O)C2CC2)cc1Nc1ccc2cnn(CC(F)(F)F)c2c1OC [Example 129, 6-(Cyclopropanecarboxamido)-4-((7-methoxy-1-(2,2,2-trifluoroethyl)-1H-indazol-6-yl)amino)-N-(methyl-d3)nicotinamide]	0.416	49.9	20.8	–	395	0.034	13.6 (≈ 6.33 µg/mL)
[2H]C([2H])([2H])NC(=O)c1cnc(Nc2ccc(F)cn2)cc1Nc1nn(C)c2ccn(CC)c(=O)c12 [Example 139, 4-((5-Ethyl-1-methyl-4-oxo-4,5-dihydro-1H-pyrazolo[4,3-c]pyridin-3-yl)amino)-6-((5-fluoropyridin-2-yl)amino)-N-(methyl-d3)nicotinamide]	0.524	23.6	12.4	–	1180	0.039	–
[2H]C([2H])([2H])NC(=O)c1cnc(NC(=O)C2CC2)cc1Nc1ccn2ncc(C#N)c2c1OC [Example 165, 4-((3-Cyano-4-methoxypyrazolo[1,5-a]pyridin-5-yl)amino)-6-(cyclopropanecarboxamido)-N-(methyl-d3)nicotinamide]	0.278	67.0	18.6	> 5000	284	0.107	–
[2H]C([2H])([2H])NC(=O)c1cnc(NC(=O)C2CC2)cc1Nc1ncc2cnn(CC)c2c1OC [Example 262, 6-(Cyclopropanecarboxamido)-4-((1-ethyl-7-methoxy-1H-pyrazolo[4,3-c]pyridin-6-yl)amino)-N-(methyl-d3)nicotinamide]	0.22	67.1	14.8	> 5000	102	0.124	17.6 (≈ 7.28 µg/mL)
